Laboratory results published in paper PMC4418694, “Crystal Structure of Fad35R from Mycobacterium tuberculosis H37Rv in the Apo-State” (PLoS ONE, 2015).

Molecular target: T1, Fad35R (Mycobacterium tuberculosis, UniProt O06169)
T1 construct: gene Rv2506
T1 sequence (O06169 entry or part of it): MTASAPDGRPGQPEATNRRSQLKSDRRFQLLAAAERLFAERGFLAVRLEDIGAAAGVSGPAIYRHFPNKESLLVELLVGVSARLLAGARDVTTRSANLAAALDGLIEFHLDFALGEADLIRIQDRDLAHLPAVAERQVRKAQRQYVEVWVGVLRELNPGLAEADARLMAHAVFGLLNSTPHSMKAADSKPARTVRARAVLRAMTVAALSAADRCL

In the case of `CN(C)[C@@H]1C(=O)C(C(N)=O)=C(O)[C@@]2(O)C(=O)C3=C(O)c4c(O)cccc4[C@@](C)(O)[C@H]3C[C@@H]12` [tetracycline], the “ligand-induced oligomerization: dynamic light scattering, size-exclusion chromat” value is reported as “Tc bound Fad35R has the propensity to form higher oligomers”.
